Measurements taken from ChEMBL document CHEMBL1154295, “Potent and selective steroidal inhibitors of 17beta-hydroxysteroid dehydrogenase type 7, an enzyme that catalyzes the reduction of the key hormones estrone and dihydrotestosterone” (J Med Chem, 2009).

molecular target: T1, 3-keto-steroid reductase/17-beta-hydroxysteroid dehydrogenase 7 (Homo sapiens) (UniProt P56937); settings: HEK293, at 0.3 µM
T1 sequence (whole entry): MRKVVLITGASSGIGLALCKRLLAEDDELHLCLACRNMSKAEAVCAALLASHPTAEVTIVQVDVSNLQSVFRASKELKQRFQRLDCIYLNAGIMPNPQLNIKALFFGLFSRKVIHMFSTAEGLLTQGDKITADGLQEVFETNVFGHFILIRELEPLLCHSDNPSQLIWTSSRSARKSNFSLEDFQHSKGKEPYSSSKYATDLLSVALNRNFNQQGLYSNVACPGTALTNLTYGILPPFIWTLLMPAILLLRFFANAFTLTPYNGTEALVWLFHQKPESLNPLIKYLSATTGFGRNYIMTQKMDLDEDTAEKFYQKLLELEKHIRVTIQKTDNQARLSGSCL
Description: Inhibition of human 17beta-HSD7 expressed in HEK293 cells assessed as inhibition of reduction of [14C]estrone into [14C]estradiol at 0.3 uM after 7 hrs

Going from `CCCCCCCCCCN(C(=O)c1ccc(CCl)cc1)[C@H]1CC[C@H]2[C@@H]3CC[C@H]4N(C)C(=O)CC[C@]4(C)[C@H]3CC[C@]12C` to `CCCCCCCCCCCCN(C(=O)c1ccc(CCl)cc1)[C@H]1CC[C@H]2[C@@H]3CC[C@H]4N(C)C(=O)CC[C@]4(C)[C@H]3CC[C@]12C`, the inhibition falls from 37% to 33%.

Going from `CCCCCCCN(C(=O)c1ccc(F)cc1F)[C@H]1CC[C@H]2[C@@H]3CC[C@H]4N(C)C(=O)CC[C@]4(C)[C@H]3CC[C@]12C` to `CCCCCCCN(C(=O)c1cc(F)ccc1F)[C@H]1CC[C@H]2[C@@H]3CC[C@H]4N(C)C(=O)CC[C@]4(C)[C@H]3CC[C@]12C`, the inhibition falls from 73% to 59%.

First: CCCCCCCCCCN(C(=O)c1ccc(C(C)(C)C)cc1)[C@H]1CC[C@H]2[C@@H]3CC[C@H]4N(C)C(=O)CC[C@]4(C)[C@H]3CC[C@]12C
Second: CCCCCCCN(C(=O)c1ccc(C(C)(C)C)cc1)[C@H]1CC[C@H]2[C@@H]3CC[C@H]4N(C)C(=O)CC[C@]4(C)[C@H]3CC[C@]12C
The inhibition of the first is lower: 4% for the first, 29% for the second.

`CCCCCCCN(C(=O)c1ccccc1Cl)[C@H]1CC[C@H]2[C@@H]3CC[C@H]4N(C)C(=O)CC[C@]4(C)[C@H]3CC[C@]12C` and `CCCCCCCCCCN(C(=O)c1ccccc1Cl)[C@H]1CC[C@H]2[C@@H]3CC[C@H]4N(C)C(=O)CC[C@]4(C)[C@H]3CC[C@]12C` are the same in inhibition: 37% for the first, 37% for the second.

Compared with `CCCCCCCCCCN(C(=O)c1ccc(Cl)cc1)[C@H]1CC[C@H]2[C@@H]3CC[C@H]4N(C)C(=O)CC[C@]4(C)[C@H]3CC[C@]12C`, `CCCCCCCCCCCCN(C(=O)c1ccc(Cl)cc1)[C@H]1CC[C@H]2[C@@H]3CC[C@H]4N(C)C(=O)CC[C@]4(C)[C@H]3CC[C@]12C` is lower in inhibition: 58% for the first, 40% for the second.

Going from `CCCCCCCCCCN(C(=O)c1cc(F)cc(F)c1)[C@H]1CC[C@H]2[C@@H]3CC[C@H]4N(C)C(=O)CC[C@]4(C)[C@H]3CC[C@]12C` to `CCCCCCCN(C(=O)c1cc(F)cc(F)c1)[C@H]1CC[C@H]2[C@@H]3CC[C@H]4N(C)C(=O)CC[C@]4(C)[C@H]3CC[C@]12C`, the inhibition rises from 38% to 56%.

`CCCCCCCCCCCCN(C(=O)c1ccc(Br)cc1)[C@H]1CC[C@H]2[C@@H]3CC[C@H]4N(C)C(=O)CC[C@]4(C)[C@H]3CC[C@]12C` and `CCCCCCCCCCN(C(=O)c1ccc(Br)cc1)[C@H]1CC[C@H]2[C@@H]3CC[C@H]4N(C)C(=O)CC[C@]4(C)[C@H]3CC[C@]12C` are the same in inhibition: 52% for the first, 52% for the second.

Compared with `CCCCCCCCCCN(C(=O)c1ccc(OC)c(C(F)(F)F)c1)[C@H]1CC[C@H]2[C@@H]3CC[C@H]4N(C)C(=O)CC[C@]4(C)[C@H]3CC[C@]12C`, `CCCCCCCCCCCCN(C(=O)c1ccc(OC)c(C(F)(F)F)c1)[C@H]1CC[C@H]2[C@@H]3CC[C@H]4N(C)C(=O)CC[C@]4(C)[C@H]3CC[C@]12C` is higher in inhibition: 46% for the first, 51% for the second.

Going from `CCCCCCCCCCN(C(=O)c1c(Cl)cccc1Cl)[C@H]1CC[C@H]2[C@@H]3CC[C@H]4N(C)C(=O)CC[C@]4(C)[C@H]3CC[C@]12C` to `CCCCCCCCCCCCN(C(=O)c1c(Cl)cccc1Cl)[C@H]1CC[C@H]2[C@@H]3CC[C@H]4N(C)C(=O)CC[C@]4(C)[C@H]3CC[C@]12C`, the inhibition falls from 36% to 18%.

Compared with `CCCCCCCN(C(=O)C1CCCCC1)[C@H]1CC[C@H]2[C@@H]3CC[C@H]4N(C)C(=O)CC[C@]4(C)[C@H]3CC[C@]12C`, `CCCCCCCN(CC1CCCCC1)[C@H]1CC[C@H]2[C@@H]3CC[C@H]4N(C)C(=O)CC[C@]4(C)[C@H]3CC[C@]12C` is higher in inhibition: 0% for the first, 45% for the second.

Compared with `CCCCCCCCCCN(C(=O)c1c(F)cccc1C(F)(F)F)[C@H]1CC[C@H]2[C@@H]3CC[C@H]4N(C)C(=O)CC[C@]4(C)[C@H]3CC[C@]12C`, `CCCCCCCN(C(=O)c1c(F)cccc1C(F)(F)F)[C@H]1CC[C@H]2[C@@H]3CC[C@H]4N(C)C(=O)CC[C@]4(C)[C@H]3CC[C@]12C` is higher in inhibition: 19% for the first, 49% for the second.

Compared with `CCCCCCCCCCN(C(=O)c1cccc(CCl)c1)[C@H]1CC[C@H]2[C@@H]3CC[C@H]4N(C)C(=O)CC[C@]4(C)[C@H]3CC[C@]12C`, `CCCCCCCCCCCCN(C(=O)c1cccc(CCl)c1)[C@H]1CC[C@H]2[C@@H]3CC[C@H]4N(C)C(=O)CC[C@]4(C)[C@H]3CC[C@]12C` is higher in inhibition: 30% for the first, 45% for the second.

Going from `CCCCCCCCCCN(C(=O)c1ccc(F)cc1)[C@H]1CC[C@H]2[C@@H]3CC[C@H]4N(C)C(=O)CC[C@]4(C)[C@H]3CC[C@]12C` to `CCCCCCCCCCCCN(C(=O)c1ccc(F)cc1)[C@H]1CC[C@H]2[C@@H]3CC[C@H]4N(C)C(=O)CC[C@]4(C)[C@H]3CC[C@]12C`, the inhibition falls from 71% to 47%.

Compared with `CCCCCCCCCCN(C(=O)c1ccc(CCCCCCC)cc1)[C@H]1CC[C@H]2[C@@H]3CC[C@H]4N(C)C(=O)CC[C@]4(C)[C@H]3CC[C@]12C`, `CCCCCCCc1ccc(C(=O)N(CCCCCCC)[C@H]2CC[C@H]3[C@@H]4CC[C@H]5N(C)C(=O)CC[C@]5(C)[C@H]4CC[C@]23C)cc1` is higher in inhibition: 11% for the first, 24% for the second.

First: CCCCCCCN(C(=O)c1ccc(Cl)cc1)[C@H]1CC[C@H]2[C@@H]3CC[C@H]4N(C)C(=O)CC[C@]4(C)[C@H]3CC[C@]12C
Second: CCCCCCCN(C(=O)c1ccc(Br)cc1)[C@H]1CC[C@H]2[C@@H]3CC[C@H]4N(C)C(=O)CC[C@]4(C)[C@H]3CC[C@]12C
The inhibition of the first is lower: 65% for the first, 68% for the second.

First: CCCCCCCCCCN(C(=O)c1c(F)cccc1F)[C@H]1CC[C@H]2[C@@H]3CC[C@H]4N(C)C(=O)CC[C@]4(C)[C@H]3CC[C@]12C
Second: CCCCCCCCCCN(C(=O)c1cc(F)ccc1F)[C@H]1CC[C@H]2[C@@H]3CC[C@H]4N(C)C(=O)CC[C@]4(C)[C@H]3CC[C@]12C
The inhibition of the first is higher: 77% for the first, 56% for the second.

Going from `CCCCCCCN(Cc1ccccc1)[C@H]1CC[C@H]2[C@@H]3CC[C@H]4N(C)C(=O)CC[C@]4(C)[C@H]3CC[C@]12C` to `CCCCCCCN(C(=O)c1ccccc1)[C@H]1CC[C@H]2[C@@H]3CC[C@H]4N(C)C(=O)CC[C@]4(C)[C@H]3CC[C@]12C`, the inhibition falls from 69% to 56%.

Going from `CCCCCCCCCCCCN(C(=O)c1ccc(C#N)cc1)[C@H]1CC[C@H]2[C@@H]3CC[C@H]4N(C)C(=O)CC[C@]4(C)[C@H]3CC[C@]12C` to `CCCCCCCCCCN(C(=O)c1ccc(C#N)cc1)[C@H]1CC[C@H]2[C@@H]3CC[C@H]4N(C)C(=O)CC[C@]4(C)[C@H]3CC[C@]12C`, the inhibition falls from 51% to 49%.

Going from `CCCCCCCN(C(=O)c1ccc(CCl)cc1)[C@H]1CC[C@H]2[C@@H]3CC[C@H]4N(C)C(=O)CC[C@]4(C)[C@H]3CC[C@]12C` to `CCCCCCCN(C(=O)c1ccc(I)cc1)[C@H]1CC[C@H]2[C@@H]3CC[C@H]4N(C)C(=O)CC[C@]4(C)[C@H]3CC[C@]12C`, the inhibition rises from 50% to 60%.

Compared with `CCCCCCCCCCN(C(=O)c1ccc(I)cc1)[C@H]1CC[C@H]2[C@@H]3CC[C@H]4N(C)C(=O)CC[C@]4(C)[C@H]3CC[C@]12C`, `CCCCCCCN(C(=O)c1ccc(C#N)cc1)[C@H]1CC[C@H]2[C@@H]3CC[C@H]4N(C)C(=O)CC[C@]4(C)[C@H]3CC[C@]12C` is higher in inhibition: 39% for the first, 56% for the second.

First: CCCCCCCN(C(=O)c1cccc(CCl)c1)[C@H]1CC[C@H]2[C@@H]3CC[C@H]4N(C)C(=O)CC[C@]4(C)[C@H]3CC[C@]12C
Second: CCCCCCCN(C(=O)c1c(Cl)cccc1Cl)[C@H]1CC[C@H]2[C@@H]3CC[C@H]4N(C)C(=O)CC[C@]4(C)[C@H]3CC[C@]12C
The inhibition of the first is lower: 24% for the first, 28% for the second.

Compared with `CCCCCN(C(=O)c1ccc(Br)cc1)[C@H]1CC[C@H]2[C@@H]3CC[C@H]4N(C)C(=O)CC[C@]4(C)[C@H]3CC[C@]12C`, `CCCCCCCN(C(=O)c1ccc(OC)c(C(F)(F)F)c1)[C@H]1CC[C@H]2[C@@H]3CC[C@H]4N(C)C(=O)CC[C@]4(C)[C@H]3CC[C@]12C` is lower in inhibition: 63% for the first, 59% for the second.

Compared with `CCCCCCCCCCN(C(=O)c1c(F)c(F)c(F)c(F)c1F)[C@H]1CC[C@H]2[C@@H]3CC[C@H]4N(C)C(=O)CC[C@]4(C)[C@H]3CC[C@]12C`, `CCCCCCCN(C(=O)c1c(F)c(F)c(F)c(F)c1F)[C@H]1CC[C@H]2[C@@H]3CC[C@H]4N(C)C(=O)CC[C@]4(C)[C@H]3CC[C@]12C` is higher in inhibition: 28% for the first, 67% for the second.

Compared with `CCCCCCCCCCCCN(C(=O)c1ccccc1Cl)[C@H]1CC[C@H]2[C@@H]3CC[C@H]4N(C)C(=O)CC[C@]4(C)[C@H]3CC[C@]12C`, `CCCCCCCCCCN(C(=O)c1ccc(F)cc1F)[C@H]1CC[C@H]2[C@@H]3CC[C@H]4N(C)C(=O)CC[C@]4(C)[C@H]3CC[C@]12C` is higher in inhibition: 46% for the first, 80% for the second.

molecular target: T1, 3-keto-steroid reductase/17-beta-hydroxysteroid dehydrogenase 7 (Homo sapiens); settings: HEK293, at 3 µM
Description: Inhibition of human 17beta-HSD7 expressed in HEK293 cells assessed as inhibition of reduction of [14C]estrone into [14C]estradiol at 3 uM after 7 hrs

Going from `C[C@]12CCc3c(ccc4cc(O)ccc34)[C@@H]1CCC2=O` to `C[C@]12CC[C@H]3C(=CCc4cc(O)ccc43)[C@@H]1CCC2=O`, the inhibition falls from 14.2% to 0%.

First: CC1(C)CC[C@@]2(CC[C@H]3[C@@H]4CCc5ccccc5[C@H]4CC[C@@]32C)OC1=O
Second: C[C@]12CC[C@@H]3c4ccc(O)cc4CC[C@H]3[C@@H]1CC[C@H]2O
The inhibition of the first is higher: 18.6% for the first, 0% for the second.

First: C[C@]12CCC(=O)C[C@@H]1CC[C@@H]1[C@@H]2CC[C@@]2(C)[C@H]1CC[C@]2(O)C(=O)CO
Second: C[C@]12CCC(=O)C[C@@H]1CC[C@@H]1[C@@H]2[C@@H](O)C[C@@]2(C)[C@H]1CC[C@]2(O)C(=O)CO
The inhibition of the first is lower: 13.4% for the first, 17.2% for the second.

Going from `C[C@]12CC[C@@H]3c4ccc(O)cc4CC[C@H]3[C@@H]1C[C@@H](O)[C@@H]2O` to `C[C@]12CC=C3c4ccc(O)cc4CC[C@H]3[C@@H]1CCC2=O`, the inhibition falls from 29.5% to 24%.

Going from `CCC(=C(c1ccc(O)cc1)c1ccc(OCCN(C)C)cc1)c1ccccc1` to `CC(C)(O)C(=O)Nc1ccc([N+](=O)[O-])c(C(F)(F)F)c1`, the inhibition rises from 3% to 8.2%.

First: C[C@]12CC[C@H](O)C=C1CC[C@@H]1[C@@H]2CC[C@]2(C)C(=O)CC[C@@H]12
Second: C[C@]12C=CC(=O)C=C1CC[C@@H]1[C@@H]2CC[C@]2(C)C(=O)CC[C@@H]12
The inhibition of the first is lower: 12.2% for the first, 21.3% for the second.

Compared with `CC(=O)[C@@]1(O)CC[C@H]2[C@@H]3CCC4=CC(=O)CC[C@]4(C)[C@H]3CC[C@@]21C`, `C[C@]12CC[C@H](O)C[C@@H]1CC[C@@H]1[C@@H]2CC[C@]2(C)[C@@H](O)CC[C@@H]12` is lower in inhibition: 20.8% for the first, 4.5% for the second.
